Where two headings read alike, the source gives them in different places.
Experiments:
[1] = target: T1, Recombinant human HDAC3/SMRT heterodimer (Homo sapiens, UniProt O15379); test: Human HDAC enzyme inhibitor Fluor-de-Lys assay, HDAC3/SMRT; format: biochemical
T1 construct: FLAG (C); made in house

KARN cells (Jurkat 2C4) = test: cells; format: cell-based
In short: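 Luminescence (Steady-Glo, 10 min, room temperature) measured next day in KARN Jurkat 2C4 cells given compounds at up to 40 μM final with 0.4% DMSO. Percent activation normalised to DMSO (0%) and 2 μM SAHA (100%), fitted by 4-parameter curve.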

[2] = recombinant human HDAC3/SMRT, Fluor-de-Lys assay
[3] = Homo sapiens, Jurkat, read-out: Karn EC50 (nM) 0.1% NHS, 0.1% normal human serum, luciferase induction, 100% = 2 μM SAHA
[4] = Homo sapiens, Jurkat, read-out: Karn EC50 (nM) 5% NHS, 5% normal human serum, luciferase induction, 100% = 2 μM SAHA
[5] = Homo sapiens, Jurkat, read-out: Karn EC50 (nM) 0.1% NHS, 0.1% normal human serum
[6] = Homo sapiens, Jurkat, read-out: Karn EC50 (nM) 5% NHS, 5% normal human serum

T1 sequence (O15379 whole entry): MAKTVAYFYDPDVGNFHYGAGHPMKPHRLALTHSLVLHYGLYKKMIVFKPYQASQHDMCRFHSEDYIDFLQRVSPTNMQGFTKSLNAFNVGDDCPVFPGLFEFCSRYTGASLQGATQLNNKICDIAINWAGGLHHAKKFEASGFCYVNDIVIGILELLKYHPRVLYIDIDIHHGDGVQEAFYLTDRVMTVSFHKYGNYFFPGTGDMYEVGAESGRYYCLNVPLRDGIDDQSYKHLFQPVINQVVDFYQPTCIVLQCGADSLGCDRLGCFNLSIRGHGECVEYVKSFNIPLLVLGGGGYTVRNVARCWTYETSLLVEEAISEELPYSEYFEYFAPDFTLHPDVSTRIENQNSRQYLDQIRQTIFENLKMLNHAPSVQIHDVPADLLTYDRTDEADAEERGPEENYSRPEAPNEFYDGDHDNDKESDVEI
T1 sequence (Q9Y618 1-899 partner limits assumed): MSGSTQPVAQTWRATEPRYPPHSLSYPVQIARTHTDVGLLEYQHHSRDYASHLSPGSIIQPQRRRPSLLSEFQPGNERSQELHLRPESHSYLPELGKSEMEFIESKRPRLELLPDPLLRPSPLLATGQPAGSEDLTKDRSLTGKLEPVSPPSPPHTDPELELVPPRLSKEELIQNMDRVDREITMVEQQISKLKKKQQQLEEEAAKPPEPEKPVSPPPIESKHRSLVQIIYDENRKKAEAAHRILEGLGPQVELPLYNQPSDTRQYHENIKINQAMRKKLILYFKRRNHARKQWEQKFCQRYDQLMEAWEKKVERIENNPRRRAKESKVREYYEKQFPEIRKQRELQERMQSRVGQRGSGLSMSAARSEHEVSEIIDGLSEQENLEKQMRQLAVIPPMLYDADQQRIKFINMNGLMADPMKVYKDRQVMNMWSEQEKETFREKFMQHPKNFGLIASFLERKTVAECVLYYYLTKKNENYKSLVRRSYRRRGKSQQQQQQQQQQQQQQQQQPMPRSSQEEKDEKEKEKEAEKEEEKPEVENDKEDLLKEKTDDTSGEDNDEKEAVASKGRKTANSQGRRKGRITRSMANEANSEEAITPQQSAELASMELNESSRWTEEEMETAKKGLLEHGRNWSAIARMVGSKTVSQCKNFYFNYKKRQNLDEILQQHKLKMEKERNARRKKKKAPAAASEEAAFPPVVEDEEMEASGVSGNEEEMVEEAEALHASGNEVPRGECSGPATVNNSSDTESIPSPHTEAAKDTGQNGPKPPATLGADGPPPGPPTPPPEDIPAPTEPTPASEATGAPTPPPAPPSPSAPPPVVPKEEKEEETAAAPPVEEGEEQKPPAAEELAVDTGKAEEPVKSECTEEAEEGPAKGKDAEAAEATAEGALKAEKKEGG

Question: Which IC50 [1, 2] does the source give for `CCC(=O)CCCCC[C@H](NC(=O)C1=NOC2(CCN(CC)CC2)C1)c1ncc(-c2cc3ccc(C)nc3cc2F)[nH]1` [Compound 233] here?
Answer: The IC50 was 8.8 nM.

Question: What about the EC50 (KARN cells (Jurkat 2C4); [3]) of the same compound?
Answer: Its EC50 is 166 nM.

Question: And the EC50 (KARN cells (Jurkat 2C4); [4])?
Answer: Its EC50 is 230 nM.

Question: With `CCC(=O)CCCCC[C@H](NC(=O)[C@H]1CC12CCN(CC)CC2)c1ncc(-c2ccc3c(ccc(=O)n3C)c2)o1` [Compound 97] as the compound, how does the IC50 [1] read?
Answer: The IC50 was 4.38 nM.

Question: What about the EC50 (KARN cells (Jurkat 2C4); [5]) of the same compound?
Answer: The EC50 was 563 nM.

Question: What about the EC50 (KARN cells (Jurkat 2C4); [6]) of the same compound?
Answer: The EC50 was 660 nM.

Question: How did the IC50 [1, 2] turn out when `CCC(=O)CCCCC[C@H](NC(=O)C1=NOC2(CCN(C)CC2)C1)c1ncc(-c2ccc(-c3cccnc3)cc2OC)o1` [Compound 222, N-{(1S)-1-[5-(2-methoxy-4-pyridin-3-ylphenyl)-1,3-oxazol-2-yl]-7-oxononyl}-8-methyl-1-oxa-2,8-diazaspiro[4.5]dec-2-ene-3-carboxamide] was run?
Answer: The IC50 was 4.67 nM.

Question: What about the EC50 (KARN cells (Jurkat 2C4); [3]) of the same compound?
Answer: The EC50 was 298 nM.

Question: And the EC50 (KARN cells (Jurkat 2C4); [4])?
Answer: The EC50 was 364 nM.

Question: `CCC(=O)CCCCC[C@H](NC(=O)[C@H]1CC12CCN(CC1CC1)CC2)c1ncc(-c2cc3ccc(C)nc3cc2F)[nH]1` [Compound 228] was tested. Which IC50 [1, 2] did it give?
Answer: Its IC50 is 0.19 nM.

Question: And the EC50 (KARN cells (Jurkat 2C4); [3])?
Answer: Its EC50 is 22 nM.

Question: And the EC50 (KARN cells (Jurkat 2C4); [4])?
Answer: The EC50 was 22 nM.

Question: Which results are given for `CCC(=O)CCCCC[C@H](NC(=O)C1=NOC2(CCN(CC)CC2)C1)c1ncc(-c2cc3ccc(=O)n(C)c3cc2OC)o1` [Compound 235]?
Answer: IC50 [1, 2]: 2.19 nM; EC50 (KARN cells (Jurkat 2C4); [3]): 249 nM; EC50 (KARN cells (Jurkat 2C4); [4]): 411 nM

Question: `CCC(=O)CCCCC[C@H](NC(=O)C1(N)CC2(CN(C)C2)C1)c1ncc(-c2cc3ccccc3nc2OC)[nH]1` [Compound 276] was tested. Which IC50 [1, 2] did it give?
Answer: The IC50 was 1.57 nM.

Question: What about the EC50 (KARN cells (Jurkat 2C4); [3]) of the same compound?
Answer: Its EC50 is 1560 nM.

Question: What about the EC50 (KARN cells (Jurkat 2C4); [4]) of the same compound?
Answer: The EC50 was 4780 nM.

Question: What does the source list for `CCC(=O)CCCCC[C@H](NC(=O)C1CC12CCNCC2)c1nnc(-c2cc3ccccc3nc2OC)o1` (stereo partly shown) [Compound 303]?
Answer: IC50 [1, 2]: 10.5 nM; EC50 (KARN cells (Jurkat 2C4); [3]): 2430 nM; EC50 (KARN cells (Jurkat 2C4); [4]): 4260 nM

Question: `CCC(=O)CCCCC[C@H](NC(=O)C1=NOC2(CCN(CC)CC2)C1)c1ncc(-c2cc3ccc(C)nc3cc2F)o1` [Compound 269] was tested. Which IC50 [1, 2] did it give?
Answer: The IC50 was 8.3 nM.

Question: And the EC50 (KARN cells (Jurkat 2C4); read-out: Karn EC50 (nM) 0.1% NHS, 0.1% normal human serum, luciferase induction, 100% = 2 μM SAHA)?
Answer: The EC50 was 746 nM.

Question: And the EC50 (KARN cells (Jurkat 2C4); read-out: Karn EC50 (nM) 5% NHS, 5% normal human serum, luciferase induction, 100% = 2 μM SAHA)?
Answer: Its EC50 is 1210 nM.

Question: Which IC50 [1, 2] does the source give for `CCC(=O)CCCCC[C@H](NC(=O)C1=NOC2(CCN(C)CC2)C1)c1ncc(-c2ccc(-c3cnccn3)cc2OC)o1` [Compound 237, N-{(1S)-1-[5-(2-methoxy-4-pyrazin-2-ylphenyl)-1,3-oxazol-2-yl]-7-oxononyl}-8-methyl-1-oxa-2,8-diazaspiro[4.5]dec-2-ene-3-carboxamide] here?
Answer: Its IC50 is 6.06 nM.

Question: What about the EC50 (KARN cells (Jurkat 2C4); [3]) of the same compound?
Answer: Its EC50 is 235 nM.

Question: And the EC50 (KARN cells (Jurkat 2C4); [4])?
Answer: Its EC50 is 274 nM.

Question: Which IC50 [1, 2] does the source give for `CCC(=O)CCCCC[C@H](NC(=O)C1CC12CCN(CC)CC2)c1nc(-c2ccc(F)cc2)[nH]c1-c1cn[nH]c1` (stereo partly shown) [Compound 249] here?
Answer: Its IC50 is 20.1 nM.

Question: And the EC50 (KARN cells (Jurkat 2C4); [3])?
Answer: Its EC50 is greater than 40000 nM.

Question: With `CCC(=O)CCCCC[C@H](NC(=O)[C@H]1CC12CCN(C(C)C)CC2)c1ncc(-c2ccc3nc(C4CC4)ccc3c2)[nH]1` [Compound 100] as the compound, how does the IC50 [1] read?
Answer: Its IC50 is less than 1.5 nM.

Question: What about the EC50 (KARN cells (Jurkat 2C4); [5]) of the same compound?
Answer: Its EC50 is 68 nM.

Question: And the EC50 (KARN cells (Jurkat 2C4); [6])?
Answer: The EC50 was 64 nM.

Question: For `CCC(=O)CCCCC[C@H](NC(=O)[C@H]1CC12CCN(C)CC2)c1ncc(-c2ccc3c(c2)c2ccccc2n3C)[nH]1` [Compound 265], which IC50 [1, 2] is on record?
Answer: The IC50 was 3.86 nM.

Question: And the EC50 (KARN cells (Jurkat 2C4); [3])?
Answer: The EC50 was 142 nM.

Question: And the EC50 (KARN cells (Jurkat 2C4); [4])?
Answer: Its EC50 is 370 nM.

Question: Which IC50 [1, 2] does the source give for `CCC(=O)CCCCC[C@H](NC(=O)[C@H]1CC12CCN(C)CC2)c1ncc(-c2ccc(F)cc2)[nH]1` [Compound 280] here?
Answer: Its IC50 is 10.6 nM.

Question: What about the EC50 (KARN cells (Jurkat 2C4); [3]) of the same compound?
Answer: The EC50 was 1020 nM.

Question: What about the EC50 (KARN cells (Jurkat 2C4); [4]) of the same compound?
Answer: Its EC50 is 919 nM.

Question: For `CCC(=O)CCCCC[C@H](NC(=O)[C@H]1CC12CCN(C)CC2)c1[nH]c(-c2ccc(F)cc2)nc1Cl` [Compound 240], which IC50 [1, 2] is on record?
Answer: Its IC50 is 2.95 nM.

Question: What about the EC50 (KARN cells (Jurkat 2C4); [3]) of the same compound?
Answer: Its EC50 is 247 nM.

Question: What about the EC50 (KARN cells (Jurkat 2C4); [4]) of the same compound?
Answer: Its EC50 is 346 nM.

Question: What does the source list for `CCC(=O)CCCCC[C@H](NC(=O)CC1CC2(CNC2)C1)c1nnc(-c2cc3ccccc3nc2OC)o1` [Compound 301]?
Answer: IC50 [1, 2]: 15.8 nM; EC50 (KARN cells (Jurkat 2C4); [3]): 24200 nM

Question: How did the IC50 [1, 2] turn out when `CCC(=O)CCCCC[C@H](NC(=O)C1=NOC2(CCN(C)CC2)C1)c1ncc(-c2cc3ccc(C)nc3cc2F)[nH]1` [Compound 232] was run?
Answer: The IC50 was 4.47 nM.

Question: And the EC50 (KARN cells (Jurkat 2C4); [3])?
Answer: The EC50 was 144 nM.

Question: What about the EC50 (KARN cells (Jurkat 2C4); [4]) of the same compound?
Answer: Its EC50 is 248 nM.

Question: Which results are given for `CCC(=O)CCCCC[C@H](NC(=O)CC1CC2(C1)CN(C)C2)c1nnc(-c2cc3ccccc3nc2OC)o1` [Compound 308]?
Answer: IC50 [1, 2]: 27.4 nM; EC50 (KARN cells (Jurkat 2C4); [3]): 2690 nM; EC50 (KARN cells (Jurkat 2C4); [4]): 3700 nM

Question: `CCC(=O)CCCCCC(NC(=O)C1CCC2(CC1)OC(=O)c1cnccc12)c1nnc(-c2cc3ccccc3nc2OC)o1` (stereo not shown) [Compound 364] was tested. Which IC50 [1, 2] did it give?
Answer: Its IC50 is 21.8 nM.

Question: What about the EC50 (KARN cells (Jurkat 2C4); [3]) of the same compound?
Answer: The EC50 was 1770 nM.

Question: What about the EC50 (KARN cells (Jurkat 2C4); [4]) of the same compound?
Answer: The EC50 was 4310 nM.

Question: With `CCC(=O)CCCCC[C@H](N)c1ncc(-c2cc3ccc(=O)n(C)c3cc2OC)o1` [Compound 224] as the compound, how does the IC50 [1, 2] read?
Answer: The IC50 was 92.1 nM.

Question: What about the EC50 (KARN cells (Jurkat 2C4); [3]) of the same compound?
Answer: The EC50 was 5000 nM.

Question: What about the EC50 (KARN cells (Jurkat 2C4); [4]) of the same compound?
Answer: The EC50 was 6970 nM.

Question: `CCC(=O)CCCCC[C@H](NC(=O)[C@H]1CC12CCN(CC)CC2)c1ncc(-c2cnc3cc(C(F)(F)F)ccc3c2)[nH]1` [Compound 341] was tested. Which IC50 [1, 2] did it give?
Answer: Its IC50 is 0.43 nM.

Question: What about the EC50 (KARN cells (Jurkat 2C4); [3]) of the same compound?
Answer: The EC50 was 44 nM.

Question: What about the EC50 (KARN cells (Jurkat 2C4); [4]) of the same compound?
Answer: The EC50 was 70 nM.

Question: Which results are given for `CN1CCC2(CC1)C[C@@H]2C(=O)N[C@@H](CCCCCC(=O)CC1CC1)c1ncc(-c2ccc(F)cc2)[nH]1` [Compound 84]?
Answer: IC50 [1]: 16.3 nM; EC50 (KARN cells (Jurkat 2C4); [5]): 632 nM; EC50 (KARN cells (Jurkat 2C4); [6]): 1180 nM

— US12590099B2, “Inhibitors of histone deacetylase useful for the treatment or prevention of HIV infection” (Merck Sharp & Dohme LLC, priority 2018, dated 2026)
